The values that follow come from PMC5346980 (ACS Medicinal Chemistry Letters, 2017).

Like-named read-outs stand apart in the source and are kept apart here.

The target in series [1] is Purified Hb (Homo sapiens, UniProt P69905). Nature of the series: Time dependence of hemoglobin-oxygen affinity. The class given is biochemical. The settings on record: Purified Hb 25 µM, 37 °C.
The conditions of series [2]: monkeys; cited from earlier work.
For series [3] the following is noted: dogs; cited from earlier work.
Series [4] has as its target P-gp (Homo sapiens, UniProt P08183). Nature of the series: Transporter substrate assessment. It counts as in vitro ADME.
Series [5] has as its target T1, BCRP (Homo sapiens, UniProt Q9UNQ0).
T1 sequence (Q9UNQ0 1-655): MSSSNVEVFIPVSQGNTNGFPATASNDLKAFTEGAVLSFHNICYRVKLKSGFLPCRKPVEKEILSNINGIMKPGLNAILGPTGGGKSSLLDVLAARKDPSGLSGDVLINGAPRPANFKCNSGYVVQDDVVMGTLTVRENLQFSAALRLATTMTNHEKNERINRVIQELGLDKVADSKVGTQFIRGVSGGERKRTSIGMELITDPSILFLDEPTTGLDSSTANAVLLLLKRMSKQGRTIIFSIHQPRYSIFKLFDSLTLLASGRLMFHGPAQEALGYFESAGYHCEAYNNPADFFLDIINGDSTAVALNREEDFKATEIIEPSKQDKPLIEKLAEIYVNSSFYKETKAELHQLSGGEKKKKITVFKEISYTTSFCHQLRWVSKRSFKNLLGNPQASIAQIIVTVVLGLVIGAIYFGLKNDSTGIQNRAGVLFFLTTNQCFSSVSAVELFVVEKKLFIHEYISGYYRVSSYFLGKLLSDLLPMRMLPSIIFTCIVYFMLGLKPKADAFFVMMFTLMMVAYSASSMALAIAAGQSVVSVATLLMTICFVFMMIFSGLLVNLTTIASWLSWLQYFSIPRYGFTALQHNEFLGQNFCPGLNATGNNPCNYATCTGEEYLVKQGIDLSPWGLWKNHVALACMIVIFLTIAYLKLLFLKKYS
Nature of the series: Transporter substrate assessment. The class given is in vitro ADME.

In series [6] the target is CYP2C19 (Homo sapiens, UniProt P33261). Nature of the series: Time-dependent CYP inhibition. It counts as in vitro ADME.
Sequence of CYP2C19 (P33261 whole entry): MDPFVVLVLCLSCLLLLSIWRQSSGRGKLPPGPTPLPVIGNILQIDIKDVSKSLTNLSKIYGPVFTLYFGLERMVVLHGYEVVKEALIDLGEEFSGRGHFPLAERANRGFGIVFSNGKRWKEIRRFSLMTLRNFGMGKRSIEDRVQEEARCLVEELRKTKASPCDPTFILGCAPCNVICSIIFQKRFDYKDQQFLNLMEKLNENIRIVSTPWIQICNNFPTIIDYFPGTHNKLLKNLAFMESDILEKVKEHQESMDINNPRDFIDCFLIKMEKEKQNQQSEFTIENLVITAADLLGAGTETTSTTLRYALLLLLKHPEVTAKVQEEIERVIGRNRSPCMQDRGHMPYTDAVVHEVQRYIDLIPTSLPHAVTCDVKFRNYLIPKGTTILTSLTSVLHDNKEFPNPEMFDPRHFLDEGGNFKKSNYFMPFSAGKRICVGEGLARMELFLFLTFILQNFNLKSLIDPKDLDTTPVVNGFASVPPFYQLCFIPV
For series [7] the following is noted: rats; cited from earlier work.
Series [8] has as its target CYP3A4 (Homo sapiens, UniProt P08684). Nature of the series: Time-dependent CYP inhibition. The class given is in vitro ADME.
In series [9] the target is purified Hb (a mixture of HbA and HbS) (Homo sapiens, UniProt P69905). Nature of the series: Hemoximetry oxygen equilibrium curves. The conditions noted are these: des-formyl compound lacking the aldehyde. The class given is biochemical.
Sequence of purified Hb (a mixture of HbA and HbS) (P69905 2-142 limits assumed): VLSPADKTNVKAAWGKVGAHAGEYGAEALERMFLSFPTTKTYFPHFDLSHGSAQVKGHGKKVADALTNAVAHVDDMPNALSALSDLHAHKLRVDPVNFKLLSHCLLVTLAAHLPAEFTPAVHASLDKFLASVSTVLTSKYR

Sequence of Purified Hb (P69905 2-142 limits assumed): as above
Sequence of P-gp (P08183 whole entry): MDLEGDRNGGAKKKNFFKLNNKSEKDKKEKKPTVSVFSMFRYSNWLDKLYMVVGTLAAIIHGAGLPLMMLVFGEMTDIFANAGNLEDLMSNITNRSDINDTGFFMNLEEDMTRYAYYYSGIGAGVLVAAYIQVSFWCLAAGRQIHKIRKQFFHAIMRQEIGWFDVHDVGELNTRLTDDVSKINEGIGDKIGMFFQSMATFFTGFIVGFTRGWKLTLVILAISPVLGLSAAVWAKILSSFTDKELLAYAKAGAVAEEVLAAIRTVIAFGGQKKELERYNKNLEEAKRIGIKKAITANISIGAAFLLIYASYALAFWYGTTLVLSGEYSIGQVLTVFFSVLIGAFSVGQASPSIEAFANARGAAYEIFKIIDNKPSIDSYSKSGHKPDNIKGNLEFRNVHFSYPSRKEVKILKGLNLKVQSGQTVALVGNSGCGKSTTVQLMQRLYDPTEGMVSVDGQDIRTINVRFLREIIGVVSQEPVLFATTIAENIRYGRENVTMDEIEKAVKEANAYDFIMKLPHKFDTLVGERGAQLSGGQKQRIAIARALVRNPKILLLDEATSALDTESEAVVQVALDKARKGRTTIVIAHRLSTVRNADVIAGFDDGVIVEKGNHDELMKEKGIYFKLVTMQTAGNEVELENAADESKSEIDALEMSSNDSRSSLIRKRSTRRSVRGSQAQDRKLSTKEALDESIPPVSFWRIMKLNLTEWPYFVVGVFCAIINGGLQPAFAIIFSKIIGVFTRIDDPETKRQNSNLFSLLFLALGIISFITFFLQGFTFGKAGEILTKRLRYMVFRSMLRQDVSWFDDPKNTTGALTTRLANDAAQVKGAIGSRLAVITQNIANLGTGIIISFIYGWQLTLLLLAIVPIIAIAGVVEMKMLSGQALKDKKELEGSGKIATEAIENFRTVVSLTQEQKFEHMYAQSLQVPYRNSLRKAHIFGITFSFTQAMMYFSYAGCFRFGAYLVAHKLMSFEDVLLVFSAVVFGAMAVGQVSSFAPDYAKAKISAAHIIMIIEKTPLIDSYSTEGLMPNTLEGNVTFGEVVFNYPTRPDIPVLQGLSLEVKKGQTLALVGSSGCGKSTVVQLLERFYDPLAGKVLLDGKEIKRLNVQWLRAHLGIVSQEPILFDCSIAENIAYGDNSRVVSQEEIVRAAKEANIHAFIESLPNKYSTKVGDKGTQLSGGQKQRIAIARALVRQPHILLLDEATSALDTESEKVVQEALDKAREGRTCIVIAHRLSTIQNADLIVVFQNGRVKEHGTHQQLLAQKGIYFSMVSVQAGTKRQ
Sequence of CYP3A4 (P08684 whole entry): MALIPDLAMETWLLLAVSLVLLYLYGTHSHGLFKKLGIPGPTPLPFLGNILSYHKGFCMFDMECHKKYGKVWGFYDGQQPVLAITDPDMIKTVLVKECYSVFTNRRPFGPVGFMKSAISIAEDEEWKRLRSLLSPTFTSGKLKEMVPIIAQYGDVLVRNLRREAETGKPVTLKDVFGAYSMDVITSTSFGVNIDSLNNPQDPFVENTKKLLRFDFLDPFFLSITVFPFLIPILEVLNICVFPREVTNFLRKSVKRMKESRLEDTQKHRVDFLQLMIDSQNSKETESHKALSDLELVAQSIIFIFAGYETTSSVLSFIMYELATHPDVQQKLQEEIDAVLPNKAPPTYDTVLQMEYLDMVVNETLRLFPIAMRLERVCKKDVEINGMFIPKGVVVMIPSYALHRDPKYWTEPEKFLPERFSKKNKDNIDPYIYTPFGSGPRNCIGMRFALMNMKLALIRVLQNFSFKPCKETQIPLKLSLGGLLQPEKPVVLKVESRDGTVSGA

For the compound `O=Cc1ccc(CO)o1` [Compound 1, 5-hydroxymethylfurfural], in [1] (compound 5 mM), the “time to maximum effect on Hb oxygenation (surrogate for on-rate)” value is listed as about 1 h.

As for `COc1ccc(OCc2cccnc2)c(C=O)c1` [Compound 4], the “time to maximum effect on Hb oxygenation (surrogate for on-rate)” value in series [1] (compound 100 µM) is about 1 h.

On to `CC(C)n1nccc1-c1ncccc1COc1cccc(O)c1C=O` [Compound 36], for which the “blood and plasma half-lives” value in [2], in [3] and in [7] was “approximately 20 h” each time. In addition, the “substrate for P-gp transporter” value in [4] is “not a substrate”. The “substrate for BCRP transporter” value in [5] is reported as “not a substrate”. Moreover, the time-dependent inhibition entry in series [6] and in series [8] was “no significant time-dependent inhibition” each time.

`COc1ccc(OCc2cccnc2-c2ccnn2C(C)C)cn1` [Compound 46]: the “activity as Hb allosteric modulator (result in words)” value in series [9] is “inactive”.
